Experimental data as given in US10561681B2, “Antimetastatic 2H-selenopheno[3,2-h]chromenes, synthesis thereof, and methods of using same agents” (Latvian Institute of Organic Synthesis, priority 2016, dated 2020).
Marks after values point to notes of the source that are not given here.

Tests used:
[1] = tested on: A549 (human lung carcinoma); experiment: In vitro cytotoxicity, MTT test; type: cell-based; conditions: Homo sapiens, A549, 72 h, MTT, 72 h; read-out: Cytotoxicity IC50, A549
In short: (§1)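 Absorbance at 540 nm of DMSO-dissolved formazan gave surviving cell number, relative to untreated cells. Cells at about 2-9·10^4 cells/mL were incubated with compounds for 72 h at 37 °C under 5% CO2, then given MTT (2 mg/mL in HBSS) for 3 h.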

CCL-8 (mouse sarcoma) = experiment: In vitro cytotoxicity, MTT test; type: cell-based; conditions: MTT, 72 h, read-out: Cytotoxicity IC50, CCL-8
In short: as §1

[2] = tested on: HT-1080 (human fibrosarcoma); experiment: In vitro cytotoxicity, MTT test; type: cell-based; conditions: HT-1080, MTT, 72 h, read-out: Cytotoxicity IC50, HT-1080
In short: as §1

[3] = tested on: HepG2 (human hepatocellular carcinoma); experiment: In vitro cytotoxicity, MTT test; type: cell-based; conditions: HepG2, MTT, 72 h, read-out: Cytotoxicity IC50, HepG2
In short: as §1

[4] = tested on: MCF-7 (human breast adenocarcinoma, estrogen-positive); experiment: In vitro cytotoxicity, MTT test; type: cell-based; conditions: MCF7, MTT, 72 h, read-out: Cytotoxicity IC50, MCF-7
In short: as §1

[5] = tested on: MDA-MB-435s (human melanoma); experiment: In vitro cytotoxicity, MTT test; type: cell-based; conditions: MTT, 72 h, read-out: Cytotoxicity IC50, MDA-MB-435s
In short: as §1

[6] = tested on: MES-SA (human uterus sarcoma); experiment: In vitro cytotoxicity, MTT test; type: cell-based; conditions: MTT, 72 h, read-out: Cytotoxicity IC50, MES-SA
In short: as §1

MG-22A (mouse hepatoma) = experiment: In vitro cytotoxicity, MTT test; type: cell-based; conditions: MTT, 72 h, read-out: Cytotoxicity IC50, MG-22A
In short: as §1

[7] = tested on: SH-SY5Y (human neuroblastoma); experiment: In vitro cytotoxicity, MTT test; type: cell-based; conditions: Homo sapiens, SH-SY5Y, 72 h, MTT, read-out: Cytotoxicity IC50, SHSY5Y
In short: as §1

[8] = Acute p.o. toxicity, Up-and-Down Procedure (OECD 425); conditions: mouse, in vivo, po; p.o. single dose, 6 weeks old male ICR mice
Experimental: Acute p.o. toxicity (LD50) was estimated by the Up-and-Down Procedure according to the OECD Test Guideline 425 [OECD (2001) Guideline for testing of chemicals OECD 425, acute oral toxicity—Up-and-Down Procedure, Paris, p. 1-26]. Animals were observed daily for clinical signs or mortality over a period of two weeks following the treatment. Compounds were dissolved in DMSO and then in PBS (pH 7.4; DMSO final concentration <1%). The test substance was administered in a single dose p.o. to mice. […]
Acute toxicity in vivo has been determined for I-10 and I-11 on 6 weeks old male ICR mice.

[9] = tested on: mouse sarcoma CCRF-S180 II (CCL-8); experiment: Mouse non-metastatic cancer model, sarcoma CCL-8 s.c. in ICR mice; type: in vivo; conditions: s.c. Day 1, 2, 3, 4, 7, 8, 9, 10, 11; dose 5 mg/kg, total dose 45 mg/kg
Experimental: Six-week-old female ICR and BALB/c mice were purchased from the University of Tartu Laboratory Animal Centre (Estonia). The mice were housed five to a cage, and under standard conditions (21-23° C., 12 h light: dark cycle), fed ad libitum (R3 diet, Lactamin AB, Kimstad, Sweden) and observed daily. The experimental procedures involving experimental animals were carried out in accordance with the guidelines of the European Community, local laws and policies, and were approved by the Latvian Animal Protection Ethical Committee, the Food and Veterinary Service, Riga, Latvia.
In vivo studies were performed utilizing the mouse sarcoma CCRF-S180 II (CCL-8) and Lewis lung carcinoma (LLC) cell line. All cell lines were purchased from ATCC. The cells were grown in Dulbecco's modified Eagle's medium (Sigma) supplemented with 10% fetal calf serum (Sigma).
ICR mice were subcutaneously inoculated in the back with 5×10^6 CCL-8 cells and BALB/c mice were inoculated with 1×10^6 LLC (Lewis Lung Carcinoma) cells, which were suspended in 0.1 mL of PBS on day zero of the study. The compounds dissolved in DMSO and then in 0.1 mL water (DMSO final concentration 1%) were injected s.c. Mice in the untreated group were similarly given doses of 0.1 mL of water with DMSO. Tumor volume (tumor volume V=[…], a is maximal and b the minimal tumor diameter) was recorded twice per week. The mice were examined every other day for diseases including appearance, weight and behavior. The mice were sacrificed at day 16 of the experiment by decapitation after ketamine/xylazine anesthesia.

4T1 carcinoma cells = experiment: 4T1 model of lung metastasis (tail vein) in Balb/c mice; type: in vivo, mouse; conditions: for % of the total area occupied by metastases, % (control = 100) / % of the total area occupied by metastases, Mean ± SD: 20 mg/kg, days 1, 4, 7, 9, 11, 14
Experimental: Compounds were administered s.c. at 1, 4, 7, 9, 11 and 14th days. 4T1 cells (10,000/0.1 ml PBS) were injected i.v. into syngeneic mice. The metastasis at day 16 are shown for each mouse, and averages are provided for illustration.
Balb/c mice were injected with 100,000 4T1 […] cancer cells into the tail vein and treatment started 24 hr later with subcutaneous (s.c.), intraperitoneal (i.p.) injections or oral administration (p.o.) of compounds according to the following scheme: 1, 4, 7, 9, 11 and 14th days in dose 20 or 40 mg/kg. Compounds were dissolved in DMSO and the solution were diluted by water (DMSO final concentration <1%). Mice in the control group were similarly given doses of 0.1 mL of water with DMSO. Twenty-one days later, all mice were anesthetized with ketamine/xylazine and euthanized, the mice were sacrificed spleens were excised from the mice and weighed. In each experiment, mice were weighed twice weekly.
(Lewis et al, Cancer Res, 2005, 65) Pulmonary metastases were enumerated by intra-tracheal injection of India ink (15% India Ink, 85% water, 3 drops NH4OH/100 ml). India ink injected lungs were washed in Feket's solution (300 ml 70% EtOH, 30 ml 37% formaldehyde, 5 ml glacial acetic acid) and then placed fresh Feket's solution overnight. […] White tumor nodules against a black lung background were measured.

| SMILES | IC50 [1] [µM] | IC50 (CCL-8 (mouse sarcoma)) [µM] | IC50 [2] [µM] | IC50 [3] [µM] | IC50 [4] [µM] | IC50 [5] [µM] | IC50 [6] [µM] | IC50 (MG-22A (mouse hepatoma)) [µM] | IC50 [7] [µM] | LD50 at 2 weeks [8] [mg/kg] | Anticancer activity in vivo (inhibition, %), CCL-8 tumor volume [9] | Effect on development of splenomegaly (4T1 carcinoma cells; 4T1 i.v.) | Spleen weight increase (4T1 carcinoma cells; 4T1 i.v., dose not stated, control with tumor +147%) [%] | % of the total area occupied by metastases, % (control = 100) (4T1 carcinoma cells; i.p.) [%] | % of the total area occupied by metastases, Mean ± SD (4T1 carcinoma cells; i.p.) [%] | % of the total area occupied by metastases, % (control = 100) (4T1 carcinoma cells; p.o.) | % of the total area occupied by metastases, Mean ± SD (4T1 carcinoma cells; p.o.) [%] | % of the total area occupied by metastases, % (control = 100) (4T1 carcinoma cells; s.c.) | % of the total area occupied by metastases, Mean ± SD (4T1 carcinoma cells; s.c., control 50 ± 33) [%] | Prevention of formation of 4T1 carcinoma lung metastasis (4T1 carcinoma cells; five mice per group) [%] |
| --- | --- | --- | --- | --- | --- | --- | --- | --- | --- | --- | --- | --- | --- | --- | --- | --- | --- | --- | --- | --- |
| COC(=O)c1cc2ccc3c(Br)c(CN4CCN(C)CC4)[se]c3c2oc1=O [Compound I-10, Methyl 7-bromo-8-((4-methylpiperazin-1-yl)methyl)-2-oxo-2H-selenopheno[3,2-h]chromene-3-carboxylate] | 187 ± 10 | 94 ± 7 | 170 ± 9 | 187 ± 10 | 150 ± 9 | > 187 | > 187 | 64 ± 5 | > 117 | 891 | 42** % | does not affect the development of splenomegaly | 63 | 86 | 43 ± 40 | 32** % | 16 ± 18 | 19* % | 10 ± 29 | – |
| O=C(O)c1cc2ccc3c(Br)c(C4(O)CCCCC4)[se]c3c2oc1=O [Compound I-11, 7-Bromo-8-(1-hydroxycyclohexyl)-2-oxo-2H-selenopheno[3,2-h]chromene-3-carboxylic acid] | > 213 | 149 ± 9 | 77 ± 5 | > 213 | 213 ± 6 | 208 ± 13 | 206 ± 10 | > 122 | > 117 | > 2000 | 58* % | – | – | 62 | 31 ± 41 | 28** % | 14 ± 31 | 39** % | 20 ± 30 | 98 |
